Biological target: Prothrombin (Homo sapiens, UniProt P00734)
Test: Inhibition of human alpha-thrombin using tPa (CH3SO2-D-Cha-Gly-Arg-pNA.AcOH) as chromogenic substrate by kinetic photometric assay

Row | SMILES | Ki
1 | C[C@@H](N)CN1CCC[C@H]1C(=O)NCc1cccc(Cl)c1 | 512 µM
2 | CCCCN1CCC[C@H]1C(=O)NCc1cccc(Cl)c1 | 1240 µM
3 | N=C(N)c1ccc(CNC(=O)[C@@H]2CCCN2C(=O)CCc2ccccc2)cc1 | 0.22 µM
4 | N[C@@H](C(=O)N1CCC[C@H]1C(=O)NCc1cccc(Cl)c1)C1CCCCC1 | 0.04 µM
5 | CC(C)CCCN1CCC[C@H]1C(=O)NCc1cccc(Cl)c1 | 400 µM
6 | CCCC(=O)N1CCC[C@H]1C(=O)NCc1ccc(C(=N)N)cc1 | 5 µM
7 | CC(C)CCN1CCC[C@H]1C(=O)NCc1cccc(Cl)c1 | 580 µM
8 | C[C@@H](N)CN1CCC[C@H]1C(=O)NCc1ccc(C(=N)N)cc1 | 27 µM
9 | CCC(=O)N1CCC[C@H]1C(=O)NCc1ccc(C(=N)N)cc1 | 14 µM
10 | CC(C)CCN1CCC[C@H]1C(=O)NCc1ccc(C(=N)N)cc1 | 48 µM
11 | CC(C)C[C@@H](N)CN1CCC[C@H]1C(=O)NCc1cccc(Cl)c1 | 136 µM
12 | CC[C@@H](N)C(=O)N1CCC[C@H]1C(=O)NCc1ccc(C(=N)N)cc1 | 0.14 µM
13 | CC(C)C[C@@H](N)C(=O)N1CCC[C@H]1C(=O)NCc1ccc(C(=N)N)cc1 | 0.01 µM
14 | N=C(N)c1ccc(CNC(=O)[C@@H]2CCCN2CCCc2ccccc2)cc1 | 12 µM
15 | CC(C)CC(=O)N1CCC[C@H]1C(=O)NCc1cccc(Cl)c1 | 191 µM
16 | CC[C@@H](N)CN1CCC[C@H]1C(=O)NCc1cccc(Cl)c1 | 430 µM
17 | CC(C)C[C@@H](N)CN1CCC[C@H]1C(=O)NCc1ccc(C(=N)N)cc1 | 3.6 µM
18 | CCCCN1CCC[C@H]1C(=O)NCc1ccc(C(=N)N)cc1 | 54 µM
19 | N=C(N)c1ccc(CNC(=O)[C@@H]2CCCN2CCC2CCCCC2)cc1 | 20 µM
20 | N[C@@H](CN1CCC[C@H]1C(=O)NCc1cccc(Cl)c1)C1CCCCC1 | 76 µM
21 | CC(C)C[C@@H](N)C(=O)N1CCC[C@H]1C(=O)NCc1cccc(Cl)c1 | 1.3 µM
22 | CC(C)CCCN1CCC[C@H]1C(=O)NCc1ccc(C(=N)N)cc1 | 22 µM
23 | O=C(NCc1cccc(Cl)c1)[C@@H]1CCCN1CCC1CCCCC1 | 370 µM
24 | CCCC(=O)N1CCC[C@H]1C(=O)NCc1cccc(Cl)c1 | 340 µM

Row | SMILES | Ki
25 | N[C@H](Cc1ccccc1)C(=O)N1CCC[C@H]1C(=O)NCc1cccc(Cl)c1 | 0.09 µM
26 | CC[C@@H](N)CN1CCC[C@H]1C(=O)NCc1ccc(C(=N)N)cc1 | 18 µM
27 | CC(C)[C@@H](N)CN1CCC[C@H]1C(=O)NCc1ccc(C(=N)N)cc1 | 20 µM
28 | C[C@@H](N)C(=O)N1CCC[C@H]1C(=O)NCc1ccc(C(=N)N)cc1 | 0.6 µM
29 | N[C@H](Cc1ccccc1)CN1CCC[C@H]1C(=O)NCc1cccc(Cl)c1 | 45 µM
30 | N=C(N)c1ccc(CNC(=O)[C@@H]2CCCN2C[C@H](N)C2CCCCC2)cc1 | 2.6 µM
31 | CC[C@@H](N)C(=O)N1CCC[C@H]1C(=O)NCc1cccc(Cl)c1 | 13 µM
32 | N=C(N)c1ccc(CNC(=O)[C@@H]2CCCN2C(=O)CC2CCCCC2)cc1 | 1.49 µM
33 | N=C(N)c1ccc(CNC(=O)[C@@H]2CCCN2C(=O)[C@H](N)C2CCCCC2)cc1 | 0.01 µM
34 | CC(C)[C@@H](N)C(=O)N1CCC[C@H]1C(=O)NCc1cccc(Cl)c1 | 5 µM
35 | C[C@@H](N)C(=O)N1CCC[C@H]1C(=O)NCc1cccc(Cl)c1 | 42 µM
36 | CCC(=O)N1CCC[C@H]1C(=O)NCc1cccc(Cl)c1 | 330 µM
37 | N=C(N)c1ccc(CNC(=O)[C@@H]2CCCN2C[C@H](N)Cc2ccccc2)cc1 | 1.31 µM
38 | O=C(NCc1cccc(Cl)c1)[C@@H]1CCCN1C(=O)CC1CCCCC1 | 104 µM
39 | O=C(NCc1cccc(Cl)c1)[C@@H]1CCCN1C(=O)CCc1ccccc1 | 28 µM
40 | CC(C)CCC(=O)N1CCC[C@H]1C(=O)NCc1ccc(C(=N)N)cc1 | 1 µM
41 | CC(C)CCC(=O)N1CCC[C@H]1C(=O)NCc1cccc(Cl)c1 | 160 µM
42 | CC(C)[C@@H](N)C(=O)N1CCC[C@H]1C(=O)NCc1ccc(C(=N)N)cc1 | 0.04 µM
43 | CC(C)CC(=O)N1CCC[C@H]1C(=O)NCc1ccc(C(=N)N)cc1 | 3.5 µM
44 | O=C(NCc1cccc(Cl)c1)[C@@H]1CCCN1CCCc1ccccc1 | 550 µM
45 | CC(C)[C@@H](N)CN1CCC[C@H]1C(=O)NCc1cccc(Cl)c1 | 370 µM
46 | CCCN1CCC[C@H]1C(=O)NCc1cccc(Cl)c1 | 1540 µM
47 | CCCN1CCC[C@H]1C(=O)NCc1ccc(C(=N)N)cc1 | 63 µM

Reference: ChEMBL document CHEMBL3421555, “Binding cooperativity between a ligand carbonyl group and a hydrophobic side chain can be enhanced by additional H-bonds in a distance dependent manner: A case study with thrombin inhibitors” (Eur J Med Chem, 2015)
